The values that follow are results of earlier work, collected in US9554577B2, “Herbicidal formulation” (priority 2011, dated 2017).

For data set [1] the following is noted: chlorinated hydrocarbons and aromatic solvents such as methylene chloride, acetone and xylene.

Structures are written as SMILES.

Regarding `CCC(CC)Nc1c([N+](=O)[O-])cc(C)c(C)c1[N+](=O)[O-]` [Pendimethalin, n-(1-ethylpropyl)-3,4-dimethyl-2,6-dinitrobenzenamine], the “stability under acidic and alkaline conditions” value is listed as “stable”. For the same molecule, the “solubility in organic solvents” value in data set [1] is “soluble”.
